Assay results from US9499550B2 (BRISTOL-MYERS SQUIBB COMPANY, priority 2012, dated 2016).
Where two headings read alike, the source gives them in different places.

Assays:
[1] = system: HCV genotype 1a (H77 strain) replicon in HUH-7 cells; test: HCV replicon luciferase reporter assay, genotype 1a; type: cell-based; settings: Hepatitis C virus, Huh-7, 72 h, 3 days incubation, read-out: LE_1a (EC50, range)
Method in brief: (§1)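 Replicon inhibition for both genotypes was measured as Renilla luciferase signal (EnduRen, 7.5 μM final, 2 h) after 3-day, 37° C exposure of replicon-bearing HUH-7 cells in 4% FCS DMEM, 0.5% DMSO. The 1b construct carries S1179I; the 1a H77 construct carries P1496L and S2204I. Twenty-point, 3-fold dilutions were fitted four-parametrically for EC50, and CC50 was taken from multiplexed Cell Titer-Blue.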

[2] = system: HCV genotype 1b (Con1) replicon in HUH-7 cells; test: HCV replicon luciferase reporter assay, genotype 1b; type: cell-based; settings: Hepatitis C virus, Huh-7, 72 h, 3 days incubation, read-out: LE_1b (EC50, range)
Method in brief: as §1

[3] = HCV genotype 1a replicon luciferase
[4] = HCV genotype 1b replicon luciferase
[5] = HCV genotype 1a replicon luciferase assay, range class
[6] = HCV genotype 1b replicon luciferase assay, range class
[7] = GETYPE1A, HCV genotype 1a replicon luciferase
[8] = GETYPE1B, HCV genotype 1b replicon luciferase

Compound | EC50 [1, 3] [nM] | EC50 [2, 4] [nM] | EC50 [1, 5] [nM] | EC50 [2, 6] [nM] | other results
CC(C)Oc1cc2ccccc2c(O[C@@H]2C[C@H]3C(=O)N[C@]4(C(=O)NS(=O)(=O)C5(C)CC5)C[C@H]4/C=C\CC[C@H](C)C[C@@H](C)[C@H](NC(=O)OC(C)(C)C(C)(F)F)C(=O)N3C2)n1 [Compound 6105, 3,3-difluoro-2-methylbutan-2-yl((2R,6S,7R,9S,13aS,14aR,16aS,Z)-2-((3-isopropoxyisoquinolin-1-yl)oxy)-7,9-dimethyl-14a-(((1-methylcyclopropyl)sulfonyl)carbamoyl)-5,16-dioxo-1,2,3,5,6,7,8,9,10,11,13a,14,14a,15,16,16a-hexadecahydrocyclopropa[e]pyrrolo[1,2-a][1,4]diazacyclopentadecin-6-yl)carbamate] | 5.01 to 35 | 1.01 to 5 |  |  | 
CC[C@@H]1C[C@H](C)CC/C=C\[C@@H]2C[C@@]2(C(=O)NS(=O)(=O)C2(C)CC2)NC(=O)[C@@H]2C[C@@H](Oc3nc4c(c5cc(OC)ccc35)CCCO4)CN2C(=O)[C@H]1NC(=O)OC(C)(C)C(F)F [Compound 6092, 1,1-difluoro-2-methylpropan-2-yl((2R,6S,7R,9R,13aS,14aR,16aS,Z)-7-ethyl-2-((9-methoxy-2,3-dihydro-1H-pyrano[2,3-c]isoquinolin-6-yl)oxy)-9-methyl-14a-(((1-methylcyclopropyl)sulfonyl)carbamoyl)-5,16-dioxo-1,2,3,5,6,7,8,9,10,11,13a,14,14a,15,16,16a-hexadecahydrocyclopropa[e]pyrrolo[1,2-a][1,4]diazacyclopentadecin-6-yl)carbamate] | 1.01 to 5 | 1.01 to 5 |  |  | 
COc1cc(F)cc2c(O[C@@H]3C[C@H]4C(=O)N[C@]5(C(=O)NS(=O)(=O)C6CC6)C[C@H]5/C=C\CC[C@H](C)C[C@@H](C)[C@H](NC(=O)O[C@H](C)C(F)(F)F)C(=O)N4C3)nccc12 [Compound 3169, (R)-1,1,1-trifluoropropan-2-yl ((2R,6S,7R,9S,13aS,14aR,16aS,Z)-14a-((cyclopropylsulfonyl)carbamoyl)-2-((7-fluoro-5-methoxyisoquinolin-1-yl)oxy)-7,9-dimethyl-5,16-dioxo-1,2,3,5,6,7,8,9,10,11,13a,14,14a,15,16,16a-hexadecahydrocyclopropa[e]pyrrolo[1,2-a][1,4]diazacyclopentadecin-6-yl)carbamate] |  |  | 4.82 to 103 | < 5.46 | 
CC(C)Oc1cc2c(Cl)cccc2c(O[C@@H]2C[C@H]3C(=O)N[C@]4(C(=O)NS(=O)(=O)C5(C)CC5)C[C@H]4/C=C\CC[C@@H](C)C[C@@H](C)[C@H](NC(=O)OC(C)(C)C)C(=O)N3C2)n1 [Compound 1090, tert-butyl ((2R,6S,7R,9R,13aS,14aR,16aS,Z)-2-((5-chloro-3-isopropoxyisoquinolin-1-yl)oxy)-7,9-dimethyl-14a-(((1-methylcyclopropyl)sulfonyl)carbamoyl)-5,16-dioxo-1,2,3,5,6,7,8,9,10,11,13a,14,14a,15,16,16a-hexadecahydrocyclopropa[e]pyrrolo[1,2-a][1,4]diazacyclopentadecin-6-yl)carbamate] |  |  | < 5.46 | < 5.46 | 
COc1cc2ccnc(O[C@@H]3C[C@H]4C(=O)N[C@]5(C(=O)NS(=O)(=O)C6(F)CC6)C[C@H]5/C=C\CC[C@H](C)C[C@@H](C)[C@H](NC(=O)OC(C)(C)C(F)(F)F)C(=O)N4C3)c2cc1Cl [Compound 4044] |  |  |  |  | EC50 [1, 7]: 4.82 to 103 nM; EC50 [2, 8]: < 5.46 nM
CC[C@@H]1C[C@H](C)CC/C=C\[C@@H]2C[C@@]2(C(=O)NS(=O)(=O)C2CC2)NC(=O)[C@@H]2C[C@@H](Oc3nc4ccc(OC)cc4nc3N(C)C)CN2C(=O)[C@H]1NC(=O)OC(C)(C)C [Compound 4304, tert-butyl ((2R,6S,7R,9R,13aS,14aR,16aS,Z)-14a-((cyclopropylsulfonyl)carbamoyl)-2-((3-(dimethylamino)-6-methoxyquinoxalin-2-yl)oxy)-7-ethyl-9-methyl-5,16-dioxo-1,2,3,5,6,7,8,9,10,11,13a,14,14a,15,16,16a-hexadecahydrocyclopropa[e]pyrrolo[1,2-a][1,4]diazacyclopentadecin-6-yl)carbamate] | 35 to 620 | 5.01 to 35 |  |  | 
COc1ccc2c(O[C@@H]3C[C@H]4C(=O)N[C@]5(C(=O)NS(=O)(=O)C6(C)CC6)C[C@H]5/C=C\CC[C@H](C)C[C@@H](C)[C@H](NC(=O)OC(C)(C)C(F)(F)F)C(=O)N4C3)nc(-c3ccc(OC(C)C)nc3)cc2c1 [Compound 5224, 1,1,1-trifluoro-2-methylpropan-2-yl((2R,6S,7R,9S,13aS,14aR,16aS,Z)-2-((3-(6-isopropoxypyridin-3-yl)-6-methoxyisoquinolin-1-yl)oxy)-7,9-dimethyl-14a-(((1-methylcyclopropyl)sulfonyl)carbamoyl)-5,16-dioxo-1,2,3,5,6,7,8,9,10,11,13a,14,14a,15,16,16a-hexadecahydrocyclopropa[e]pyrrolo[1,2-a][1,4]diazacyclopentadecin-6-yl)carbamate] | 4.82 to 103 | 4.82 to 103 |  |  | 
CC(C)Oc1ccc2c(O[C@@H]3C[C@H]4C(=O)N[C@]5(C(=O)NS(=O)(=O)C6CC6)C[C@H]5/C=C\CC[C@@H](C)C[C@@H](C)[C@H](NC(=O)O[C@H](C)C(F)(F)F)C(=O)N4C3)nccc2c1 [Compound 5150, (R)-1,1,1-trifluoropropan-2-yl((2R,6S,7R,9R,13aS,14aR,16aS,Z)-14a-((cyclopropylsulfonyl)carbamoyl)-2-((6-isopropoxyisoquinolin-1-yl)oxy)-7,9-dimethyl-5,16-dioxo-1,2,3,5,6,7,8,9,10,11,13a,14,14a,15,16,16a-hexadecahydrocyclopropa[e]pyrrolo[1,2-a][1,4]diazacyclopentadecin-6-yl)carbamate] | < 5.46 | < 5.46 |  |  | 
COc1ccc2c(O[C@@H]3C[C@H]4C(=O)N[C@]5(C(=O)NS(=O)(=O)C6(CF)CC6)C[C@H]5/C=C\CC[C@@H](C)C[C@@H](C)[C@H](NC(=O)OC(C)(C)C(C)(F)F)C(=O)N4C3)nccc2c1 [Compound 1143, 3,3-difluoro-2-methylbutan-2-yl((2R,6S,7R,9R,13aS,14aR,16aS,Z)-14a-(((1-(fluoromethyl)cyclopropyl)sulfonyl)carbamoyl)-2-((6-methoxyisoquinolin-1-yl)oxy)-7,9-dimethyl-5,16-dioxo-1,2,3,5,6,7,8,9,10,11,13a,14,14a,15,16,16a-hexadecahydrocyclopropa[e]pyrrolo[1,2-a][1,4]diazacyclopentadecin-6-yl)carbamate] |  |  | 4.82 to 103 | < 5.46 | 
COc1cnc(O[C@@H]2C[C@H]3C(=O)N[C@]4(C(=O)NS(=O)(=O)C5(CF)CC5)C[C@H]4/C=C\CC[C@@H](C)C[C@@H](C)[C@H](NC(=O)OC4(C)COC4)C(=O)N3C2)c2ccccc12 [Compound 1045, 3-methyloxetan-3-yl ((2R,6S,7R,9R,13aS,14aR,16aS,Z)-14a-(((1-(fluoromethyl)cyclopropyl)sulfonyl)carbamoyl)-2-((4-methoxyisoquinolin-1-yl)oxy)-7,9-dimethyl-5,16-dioxo-1,2,3,5,6,7,8,9,10,11,13a,14,14a,15,16,16a-hexadecahydrocyclopropa[e]pyrrolo[1,2-a][1,4]diazacyclopentadecin-6-yl)carbamate] |  |  | < 5.46 | < 5.46 | 
[2H]C([2H])([2H])C(OC(=O)N[C@@H]1C(=O)N2C[C@H](Oc3nccc4c5c(ccc34)N(C)CCO5)C[C@H]2C(=O)N[C@]2(C(=O)NS(=O)(=O)C3CC3)C[C@H]2/C=C\CC[C@H](C)C[C@H]1CC)(C([2H])([2H])[2H])C(F)(F)F [Compound 5311, 1,1,1,3,3,3-hexadeutero-2-(trifluoromethyl)propan-2-yl((2R,6S,7R,9S,13aS,14aR,16aS,Z)-14a-((cyclopropylsulfonyl)carbamoyl)-7-ethyl-9-methyl-2-((4-methyl-3,4-dihydro-2H-[1,4]oxazino[2,3-f]isoquinolin-7-yl)oxy)-5,16-dioxo-1,2,3,5,6,7,8,9,10,11,13a,14,14a,15,16,16a-hexadecahydrocyclopropa[e]pyrrolo[1,2-a][1,4]diazacyclopentadecin-6-yl)carbamate] | < 5.46 | < 5.46 |  |  | 
CCOc1cnc(O[C@@H]2C[C@H]3C(=O)N[C@]4(C(=O)NS(=O)(=O)C5(C)CC5)C[C@H]4/C=C\CC[C@@H](C)C[C@@H](C)[C@H](NC(=O)OC(C)(C)C(F)(F)F)C(=O)N3C2)c2cc(Cl)ccc12 [Compound 4076] |  |  |  |  | EC50 [1, 7]: < 5.46 nM; EC50 [2, 8]: < 5.46 nM
COc1ccc2c(O[C@@H]3C[C@H]4C(=O)N[C@]5(C(=O)NS(=O)(=O)C6(C)CC6)C[C@H]5/C=C\CC[C@@H](C)C[C@@H](C)[C@H](NC(=O)OC(C)(C)C(F)(F)F)C(=O)N4C3)nc(-c3ccc(OC(C)C)nc3)cc2c1 [Compound 5225, 1,1,1-trifluoro-2-methylpropan-2-yl((2R,6S,7R,9R,13aS,14aR,16aS,Z)-2-((3-(6-isopropoxypyridin-3-yl)-6-methoxyisoquinolin-1-yl)oxy)-7,9-dimethyl-14a-(((1-methylcyclopropyl)sulfonyl)carbamoyl)-5,16-dioxo-1,2,3,5,6,7,8,9,10,11,13a,14,14a,15,16,16a-hexadecahydrocyclopropa[e]pyrrolo[1,2-a][1,4]diazacyclopentadecin-6-yl)carbamate] | < 5.46 | < 5.46 |  |  | 
